Assay results reported in PubChem BioAssay AID328 (DTP/NCI, 2004).
Where “and” joins values, the source holds several entries; their conditions need not be identical. Equal entries are not always repeated. Toxic doses and inconclusive results are not listed.

Test system: BDF1 mice, P388 leukemia ip, median survival T/C
Test: NCI In Vivo Anticancer Drug Screen. Data for tumor model P388 Leukemia (intraperitoneal) in B6D2F1 (BDF1) mice
Conditions: endpoint: median survival time, higher = longer survival
Method in brief: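 Vehicle-dosed animals serve as the reference; survival of compound-dosed, tumour-implanted mice is divided by it.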

[1] = dose: 6.25 mg/kg/injection, schedule: Q01DX009 (ip), vehicle: saline
[2] = dose: 50.0 mg/kg/injection, schedule: Q01DX009 (ip), vehicle: saline
[3] = dose: 100.0 mg/kg/injection, schedule: Q01DX009 (ip), vehicle: saline
[4] = dose: 200.0 mg/kg/injection, schedule: Q04DX003 (ip), vehicle: saline
[5] = dose: 50.0 mg/kg/injection, schedule: Q01DX009 (ip), vehicle: saline with Tween-80
[6] = dose: 100.0 mg/kg/injection, schedule: Q01DX009 (ip), vehicle: saline with Tween-80

O=P1(N(CCCl)CCCl)NCCCO1 (configuration not stated)
T/C [1]: 120 % of control
T/C (dose: 10.0 mg/kg/injection, schedule: Q01DX010 (ip), vehicle: water): 227 % of control
T/C (dose: 10.0 mg/kg/injection, schedule: Q01DX015 (ip), vehicle: saline): 167 % of control
T/C (dose: 11.25 mg/kg/injection, schedule: Q01DX010 (ip), vehicle: saline): 186 % of control
T/C (dose: 12.5 mg/kg/injection, schedule: Q01DX009 (ip), vehicle: saline): 124 % of control and 206 % of control
T/C (dose: 15.0 mg/kg/injection, schedule: Q01DX015 (ip), vehicle: saline): 202 % of control and 216 % of control
T/C (dose: 20.0 mg/kg/injection, schedule: Q01DX010 (ip), vehicle: saline): 235 % of control and 259 % of control and 280 % of control
T/C (dose: 20.0 mg/kg/injection, schedule: Q01DX010 (ip), vehicle: water): 272 % of control
T/C (dose: 20.0 mg/kg/injection, schedule: Q01DX015 (ip), vehicle: saline): 245 % of control and 219 % of control
T/C (dose: 25.0 mg/kg/injection, schedule: Q01DX009 (ip), vehicle: saline): 257 % of control and 165 % of control
T/C (dose: 25.0 mg/kg/injection, schedule: Q01DX015 (ip), vehicle: saline): 272 % of control and 349 % of control
T/C (dose: 25.0 mg/kg/injection, schedule: Q04DX003 (ip), vehicle: saline): 150 % of control and 179 % of control
T/C (dose: 25.0 mg/kg/injection, schedule: Q04DX003 (ip), vehicle: water): 283 % of control
T/C (dose: 30.0 mg/kg/injection, schedule: Q01DX010 (ip), vehicle: saline): 272 % of control and 300 % of control (2×)
T/C (dose: 30.0 mg/kg/injection, schedule: Q01DX015 (ip), vehicle: saline): 356 % of control and 423 % of control
T/C (dose: 31.3 mg/kg/injection, schedule: Q01DX001 (ip), vehicle: saline): 163 % of control
T/C (dose: 37.5 mg/kg/injection, schedule: Q01DX001 (ip), vehicle: saline): 153 % of control
T/C (dose: 50.0 mg/kg/injection, schedule: Q01DX001 (ip), vehicle: saline): 159 % of control and 175 % of control
T/C [2]: 250 % of control and 111 % of control and 112 % of control
T/C (dose: 50.0 mg/kg/injection, schedule: Q04DX003 (ip), vehicle: saline): 258 % of control and 192 % of control
T/C (dose: 50.0 mg/kg/injection, schedule: Q04DX003 (ip), vehicle: water): 111 % of control
T/C (dose: 50.0 mg/kg/injection, schedule: Q08DX002 (ip), vehicle: saline): 218 % of control
T/C (dose: 62.5 mg/kg/injection, schedule: Q01DX001 (ip), vehicle: saline): 190 % of control
T/C (dose: 70.0 mg/kg/injection, schedule: Q04DX003 (ip), vehicle: saline): 258 % of control and 98 % of control
T/C (dose: 75.0 mg/kg/injection, schedule: Q04DX003 (ip), vehicle: saline): 557 % of control
T/C (dose: 86.4 mg/kg/injection, schedule: Q01DX001 (ip), vehicle: saline): 234 % of control and 117 % of control and 193 % of control
T/C (dose: 89.0 mg/kg/injection, schedule: Q01DX001 (ip), vehicle: saline): 197 % of control
T/C [3]: 100 % of control and 112 % of control and 113 % of control
T/C (dose: 100.0 mg/kg/injection, schedule: Q04DX003 (ip), vehicle: water): 91 % of control
T/C (dose: 100.0 mg/kg/injection, schedule: Q08DX002 (ip), vehicle: saline): 267 % of control
T/C (dose: 125.0 mg/kg/injection, schedule: Q01DX001 (ip), vehicle: saline): 293 % of control
T/C (dose: 144.0 mg/kg/injection, schedule: Q01DX001 (ip), vehicle: saline): 297 % of control and 541 % of control and 198 % of control
T/C (dose: 180.0 mg/kg/injection, schedule: Q01DX001 (ip), vehicle: water): 244 % of control
T/C [4]: 103 % of control
T/C (dose: 200.0 mg/kg/injection, schedule: Q08DX002 (ip), vehicle: saline): 270 % of control
T/C (dose: 240.0 mg/kg/injection, schedule: Q01DX001 (ip), vehicle: saline): 290 % of control and 544 % of control
T/C (dose: 300.0 mg/kg/injection, schedule: Q01DX001 (ip), vehicle: water): 268 % of control
T/C (dose: 400.0 mg/kg/injection, schedule: Q08DX002 (ip), vehicle: saline): 88 % of control
T/C (dose: 500.0 mg/kg/injection, schedule: Q01DX001 (ip), vehicle: water): 252 % of control
T/C (dose: 600.0 mg/kg/injection, schedule: Q01DX001 (ip), vehicle: saline): 54 % of control

COc1ccc([I+]c2ccccc2)cc1
T/C (dose: 1.56 mg/kg/injection, schedule: Q01DX009 (ip), vehicle: saline): 87 % of control
T/C (dose: 3.13 mg/kg/injection, schedule: Q01DX009 (ip), vehicle: saline): 104 % of control
T/C [1]: 112 % of control and 120 % of control
T/C (dose: 12.5 mg/kg/injection, schedule: Q04DX003 (ip), vehicle: saline sonified): 105 % of control
T/C (dose: 25.0 mg/kg/injection, schedule: Q04DX003 (ip), vehicle: saline sonified): 110 % of control

COC1=C(C2(O)C(=O)N(C)c3ccccc32)C(=O)C(OC)=C(C2(O)C(=O)N(C)c3ccccc32)C1=O (configuration not stated)
T/C (dose: 100.0 mg/kg/injection, schedule: Q01DX001 (ip), vehicle: saline with Tween-80): 91 % of control
T/C (dose: 200.0 mg/kg/injection, schedule: Q01DX001 (ip), vehicle: saline with Tween-80): 89 % of control
T/C (dose: 400.0 mg/kg/injection, schedule: Q01DX001 (ip), vehicle: saline with Tween-80): 90 % of control

CCCCNC(=O)c1ccccc1Sc1ccccc1C(=O)NCCCC
T/C (dose: 100.0 mg/kg/injection, schedule: Q04DX002 (ip), vehicle: saline with Tween-80): 107 % of control
T/C (dose: 200.0 mg/kg/injection, schedule: Q04DX002 (ip), vehicle: saline with Tween-80): 109 % of control
T/C (dose: 400.0 mg/kg/injection, schedule: Q04DX002 (ip), vehicle: saline with Tween-80): 104 % of control

O=C(NCCCl)N(CCCl)C(=O)Oc1c(Cl)c(Cl)c(Cl)c(Cl)c1Cl
T/C (dose: 50.0 mg/kg/injection, schedule: Q01DX005 (ip), vehicle: Klucel (hydroxypropylcellulose) (HPC)): 97 % of control
T/C (dose: 100.0 mg/kg/injection, schedule: Q01DX005 (ip), vehicle: Klucel (hydroxypropylcellulose) (HPC)): 105 % of control
T/C (dose: 200.0 mg/kg/injection, schedule: Q01DX005 (ip), vehicle: Klucel (hydroxypropylcellulose) (HPC)): 91 % of control

CS(=O)(=O)OCCN(CCOS(C)(=O)=O)c1ccccc1
T/C (dose: 16.5 mg/kg/injection, schedule: Q04DX003 (ip), vehicle: saline with Tween-80): 150 % of control
T/C (dose: 16.5 mg/kg/injection, schedule: Q04DX003 (ip), vehicle: saline): 113 % of control
T/C (dose: 37.5 mg/kg/injection, schedule: Q04DX003 (ip), vehicle: saline with Tween-80): 222 % of control

N#CCCNCCC#N
T/C [2]: 91 % of control
T/C [3]: 108 % of control
T/C (dose: 100.0 mg/kg/injection, schedule: Q04DX003 (ip), vehicle: saline): 105 % of control
T/C (dose: 200.0 mg/kg/injection, schedule: Q01DX009 (ip), vehicle: saline): 104 % of control
T/C [4]: 105 % of control

C[Si](C)(C)C1CO1 (configuration not stated)
T/C [5]: 106 % of control
T/C [6]: 106 % of control
T/C (dose: 200.0 mg/kg/injection, schedule: Q01DX009 (ip), vehicle: saline with Tween-80): 102 % of control

COC(=O)CCC#CC#CCCC(=O)OC
T/C (dose: 100.0 mg/kg/injection, schedule: Q04DX003 (ip), vehicle: Klucel (hydroxypropylcellulose) (HPC)): 109 % of control
T/C (dose: 200.0 mg/kg/injection, schedule: Q04DX003 (ip), vehicle: Klucel (hydroxypropylcellulose) (HPC)): 104 % of control
T/C (dose: 400.0 mg/kg/injection, schedule: Q04DX003 (ip), vehicle: Klucel (hydroxypropylcellulose) (HPC)): 109 % of control

O=S(=O)(OCC#CCOS(=O)(=O)c1ccc(Cl)c(Cl)c1)c1ccc(Cl)c(Cl)c1
T/C (dose: 12.5 mg/kg/injection, schedule: Q01DX009 (ip), vehicle: Klucel (hydroxypropylcellulose) (HPC)): 99 % of control
T/C (dose: 25.0 mg/kg/injection, schedule: Q01DX009 (ip), vehicle: Klucel (hydroxypropylcellulose) (HPC)): 112 % of control
T/C (dose: 35.0 mg/kg/injection, schedule: Q01DX009 (ip), vehicle: Klucel (hydroxypropylcellulose) (HPC)): 93 % of control
T/C (dose: 50.0 mg/kg/injection, schedule: Q01DX009 (ip), vehicle: Klucel (hydroxypropylcellulose) (HPC)): 87 % of control
T/C (dose: 75.0 mg/kg/injection, schedule: Q01DX009 (ip), vehicle: Klucel (hydroxypropylcellulose) (HPC)): 101 % of control

Cc1cc2nc(N)sc2cc1C
T/C (dose: 12.5 mg/kg/injection, schedule: Q01DX009 (ip), vehicle: other): 115 % of control
T/C (dose: 25.0 mg/kg/injection, schedule: Q01DX009 (ip), vehicle: other): 105 % of control

O=[N+]([O-])c1ccc2scc3c4ccccc4nc-3c2c1
T/C [1]: 103 % of control

O=C(NC(=O)c1c(F)cccc1F)Nc1ccc(Cl)c2ccccc12
T/C (dose: 25.0 mg/kg/injection, schedule: Q01DX009 (ip), vehicle: saline with Tween-80): 91 % of control
T/C [5]: 100 % of control
T/C [6]: 90 % of control

O=C(CNC(c1ccccc1)(c1ccccc1)c1ccccc1)OC(c1ccccc1)c1ccccc1
T/C (dose: 100.0 mg/kg/injection, schedule: Q04DX003 (ip), vehicle: saline with Tween-80): 104 % of control
T/C (dose: 200.0 mg/kg/injection, schedule: Q04DX003 (ip), vehicle: saline with Tween-80): 104 % of control
T/C (dose: 400.0 mg/kg/injection, schedule: Q04DX003 (ip), vehicle: saline with Tween-80): 100 % of control
